Where two headings read alike, the source gives them in different places.
What was measured:
[1] = molecular target: NADH: ferricytochrome b5 reductase; parameters: method as in PMID 22542668; conditions: cited from earlier work; for IC50: read-out: IC50 against NADH: ferricytochrome b5 reductase
[2] = molecular target: T1, Cb5R in rat liver microsomes (Rattus norvegicus, UniProt P20070); test: NADH: ferricyanide reductase activity in rat liver microsomes; type: biochemical; conditions: for inhibition at 40 µM: 40 µM compound; for IC50: microsomes 5.6 µg/mL of protein; for Maximum inhibition of NADH: ferricyanide reductase activity in microsomes, E form / Maximum inhibition of NADH: ferricyanide reductase activity in microsomes, NE form: up to 100 µM compound
T1 construct: testing the action of compounds 1 and 5 against the Cb5R present in rat liver microsomes; from tissue; host or cells: rat liver microsomes
T1 sequence (P20070 1-301): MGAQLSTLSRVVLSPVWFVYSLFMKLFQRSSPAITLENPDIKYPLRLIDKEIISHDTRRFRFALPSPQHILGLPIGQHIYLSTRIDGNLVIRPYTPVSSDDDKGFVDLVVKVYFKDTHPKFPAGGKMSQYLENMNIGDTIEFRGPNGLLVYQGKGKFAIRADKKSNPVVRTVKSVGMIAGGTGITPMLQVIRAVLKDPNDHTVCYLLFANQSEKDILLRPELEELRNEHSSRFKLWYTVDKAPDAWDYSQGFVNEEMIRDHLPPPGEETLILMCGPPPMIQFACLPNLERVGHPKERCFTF
Protocol: To further assess the biological relevance of the tested compounds as inhibitors of the Cb5R, we measure the inhibition dependence of the NADH: ferricyanide reductase activity in rat liver microsomes (Figure 6a). All tested compounds follow a dose-dependent effect on this activity, although the maximum inhibition achieved for them was not the same as measured with the purified recombinant enzyme.
(§1) Livers were obtained from add livitum rats. Microsomes were prepared as previously performed, with slight differences. […] Buffer (3 mL) was used per gram of liver tissue. After homogenization, the lysate was centrifuged at 960× g for 10 min at 4 °C. The supernatant was collected and centrifuged at 9800× g for 20 min at 4 °C. Finally, the supernatant was centrifuged at 53170× g for 60 min at 4 °C. The microsomal sediment was resuspended in the same buffer and frizzed at −80 °C until use.

[3] = molecular target: T1, Cb5R in rat liver microsomes; test: NADH: Cb5 reductase activity of rat liver microsomes; type: biochemical; conditions: 40 µM compound, Cb5 5 μM, NADH 150 μM
Protocol: We measured the inhibition of the NADH: Cb5 reductase activity with a fixed concentration of the compounds (Figure 6b) and compared the values with those of the NADH: ferricyanide reductase activity in microsomes (Figure 6a).
as §1

Cb5R from microsomes = molecular target: T2, Cb5R from microsomes (Rattus norvegicus, UniProt P20070); test: NADH-dependent superoxide anion production (NADH: NBT reductase activity sensitive to SOD and CAT) of microsomes; type: biochemical; conditions: microsomes 5.2 µg/mL, without compound 2.3 ± 0.1; for Superoxide anion production of microsomes in presence of compound, NE form: non-equilibrated
T2 construct: testing the action of compounds 1 and 5 against the Cb5R present in rat liver microsomes; from tissue; host or cells: rat liver microsomes
T2 sequence (P20070 1-301): T1 sequence (P20070 1-301)
Protocol: Finally, we measured the effect of compounds 1 and 5 on the previously described NADH-dependent superoxide anion production of the Cb5R by quantifying the inhibitory effect of the compounds on the NADH: nitro blue tetrazolium (NBT) reductase activity of Cb5R from microsomes sensitive to superoxide dismutase (SOD) and catalase (CAT) (Figure 6c). The NADH: NBT reductase activity of Cb5R measured with microsomes (5.2 µg/mL) was 4.4 ± 0.1 µM/min.

[4] = UV-vis spectra of species interconversion in phosphate buffer pH 7.0; type: physicochemical; conditions: 24 h in phosphate buffer pH 7.0, relative to value after 2 min incubation
Protocol: The stock solutions of the flavylium compounds were prepared in dimethyl sulfoxide (DMSO): H2O (99:1) containing 0.1M of HCl. To estimate the predominant species of the used compounds (Figure 1), 10 µL of stock solution of each compound was added to potassium phosphate buffer at pH 7.0. The UV-vis spectra were recorded immediately (Figure S1, black lines) and after 2 min (red lines). […] The spectral signatures, i.e., the observation of absorption bands in the visible and UV-vis regions, pointed out the existence of the quinoidal base and colorless hemiketal/chalcone species mixtures under non-equilibrated conditions.
Stock solutions of compounds at acid pH values (non-equilibrated (NE) in the media) and by incubation in phosphate buffer at pH 7.0 for 24 h were prepared, and their UV-vis was measured in phosphate buffer pH 7.0. As expected, the mole fraction of the quinoidal base of compounds 1 and 5 partially disappeared, leading to the formation of the respective trans-chalcone species after a 24 h incubation in phosphate buffer at pH 7.0 (Supplementary Figure S2). We monitored the spectra of compounds 1 and 5 (black and grey line, respectively) after immediate addition into phosphate buffer pH 7.0 (continuous line) or after incubation in this buffer for 24 h (dotted line). […]

[5] = equilibrated, read-out: Inhibition of NADH: ferricyanide reductase activity of microsomes, E form
[6] = non-equilibrated, read-out: Inhibition of NADH: ferricyanide reductase activity of microsomes, NE form
[7] = equilibrated, read-out: IC50, NADH: ferricyanide reductase activity of microsomes, E form
[8] = equilibrated, read-out: Inhibition of NADH: Cb5 reductase activity of microsomes, E form
[9] = non-equilibrated, read-out: Inhibition of NADH: Cb5 reductase activity of microsomes, NE form

In the case of `O=c1cc(-c2ccc(O)c(O)c2)oc2cc(O)cc(O)c12` [luteolin], the IC50 [1] is given as 0.11 µM.
In the case of `Oc1cc(O)c2c(c1)O[C@H](c1ccc(O)c(O)c1)[C@@H](O)C2` [catechin], the IC50 [1] is listed as 4.5 µM.
For `Oc1cc(O)c2c(c1)O[C@H](c1ccc(O)c(O)c1)[C@H](O)C2` [epicatechin], the IC50 [1] is listed as 3.2 µM.
With `Oc1ccc(-c2ccc3ccc(O)cc3[o+]2)cc1` [Compound 1] the inhibition at 40 µM [2, 5] was 63.4 ± 3.6%, the inhibition at 40 µM [2, 6] was 4.6 ± 4% and the IC50 [2, 7] was 18 ± 3.8 µM. The “Maximum inhibition of NADH: ferricyanide reductase activity in microsomes, E form” value ([2]; equilibrated) was 85 ±2%, the “Maximum inhibition of NADH: ferricyanide reductase activity in microsomes, NE form” value ([2]; non-equilibrated) was 11 ±7% and the inhibition at 40 µM [3, 8] was 58.8 ± 1.5%. The inhibition at 40 µM [3, 9] was 25 ± 5.3%, the “Superoxide anion production of microsomes in presence of compound, E form” value (Cb5R from microsomes; equilibrated) was 1.4 ± 0.1 µM/min and the “Superoxide anion production of microsomes in presence of compound, NE form” value (Cb5R from microsomes) was 1.7 ± 0.1 µM/min. The “Quinoidal base disappeared, forming the trans-chalcone” value [4] was “ca. 40%”.
In the case of `O=c1cc(-c2ccc(O)cc2)oc2cc(O)cc(O)c12` [apigenin], the IC50 [1] is listed as 36 µM.
In the case of `O=C1C[C@@H](c2ccc(O)cc2)Oc2cc(O)cc(O)c21` [Naringenin], the “Inhibition of Cb5R in vitro” value ([1]; in vitro studies) is listed as “did not inhibit”.
In the case of `O=c1c(O)c(-c2ccc(O)c(O)c2)oc2cc(O)cc(O)c12` [quercetin], the IC50 [1] is listed as 1.1 µM.
`Oc1ccc2ccc(-c3ccc(O)c(O)c3)[o+]c2c1` [Compound 5] gave an inhibition at 40 µM [2, 5] of 81.8 ± 2.3%, an inhibition at 40 µM [2, 6] of 71 ± 4.7% and an IC50 [2, 7] of 3.3 ± 0.4 µM. The IC50 ([2]; non-equilibrated, read-out: IC50, NADH: ferricyanide reductase activity of microsomes, NE form) was 8 ± 2.2 µM, the “Maximum inhibition of NADH: ferricyanide reductase activity in microsomes, E form” value ([2]; equilibrated) was 81 ± 2% and the “Maximum inhibition of NADH: ferricyanide reductase activity in microsomes, NE form” value ([2]; non-equilibrated) was 77 ± 2%. For the same compound, the inhibition at 40 µM [3, 8] was 80.6 ± 0.8%, the inhibition at 40 µM [3, 9] was 65.6 ± 2.9% and the “Superoxide anion production of microsomes in presence of compound, NE form” value (Cb5R from microsomes) was 1.4 ± 0.1 µM/min. For the same compound, the “Quinoidal base disappeared, forming the trans-chalcone” value [4] was “ca. 40%”.

From paper PMC9822168, “The Use of Flavylium Salts as Dynamic Inhibitor Moieties for Human Cb5R” (Molecules, 2022)
